Results on three compounds are retold here after ChEMBL document CHEMBL1201862, “PubChem BioAssay data set” (2004).

Active and inactive are the calls of the source.

One test has as its target Mu-type opioid receptor (Homo sapiens, UniProt P35372). Nature of the test: SAR Analysis of Antagonists of the MOR Receptor using an Image-Based Assay - Set 3. [Related pubchem assays (depositor defined):AID1777, AID1785, AID1786, AID1966, AID2133, AID2136, AID2284, AID2285, AID2420]. The test is classed as functional.
In test [1] the target is T1, Kappa-type opioid receptor (Homo sapiens, UniProt P41145). The test can be described thus: SAR analysis of small molecule antagonists of the kappa opioid receptor via a luminescent beta-arrestin assay - Set 4. [Related pubchem assays (depositor defined):AID1777, AID1778, AID1785, AID1786, AID1966, AID2133, AID2136, AID2285]. The test is classed as functional.
The target in test [2] is Delta-type opioid receptor (Homo sapiens, UniProt P41143). The test can be described thus: SAR Analysis of Antagonists of the DOR Receptor using an Image-Based Assay - Set 3. [Related pubchem assays (depositor defined):AID1777, AID1785]. Type of test: functional.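 Note: U2OS cells expressing DOR1 and beta-arrestin GFP stimulated with 100 nM SNC80; imaging of GFP-tagged beta-arrestin moving into spots after receptor activation.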
Test [3] deals with T1, Kappa-type opioid receptor. Nature of the test: SAR analysis of Antagonists of the Kappa Opioid Receptor (KOR) using an Image-Based Assay - Set 4. [Related pubchem assays (depositor defined):AID1777, AID1785]. The test is classed as functional.
Test [4] concerns the target T2, Mannose-6-phosphate isomerase (Homo sapiens, UniProt P34949).
T2 sequence (P34949 whole entry): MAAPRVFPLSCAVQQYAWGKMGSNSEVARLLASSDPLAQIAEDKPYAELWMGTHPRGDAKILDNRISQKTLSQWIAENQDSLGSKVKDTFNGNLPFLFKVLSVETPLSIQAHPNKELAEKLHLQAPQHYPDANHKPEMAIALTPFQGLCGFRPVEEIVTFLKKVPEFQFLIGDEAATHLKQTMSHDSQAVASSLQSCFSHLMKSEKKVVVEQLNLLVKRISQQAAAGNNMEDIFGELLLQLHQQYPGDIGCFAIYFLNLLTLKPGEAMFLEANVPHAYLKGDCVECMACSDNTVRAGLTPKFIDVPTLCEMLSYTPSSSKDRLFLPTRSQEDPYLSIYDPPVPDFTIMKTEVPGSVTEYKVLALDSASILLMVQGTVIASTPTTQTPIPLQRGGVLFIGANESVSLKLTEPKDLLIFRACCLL
The test can be described thus: phosphomannose isomerase inhibition – biochemical, fluorescence intensity, confirmation (AID 1535).

For the next test, the target named is T3, Hexokinase (Trypanosoma brucei, UniProt Q38C41).
T3 sequence (Q38C41 whole entry): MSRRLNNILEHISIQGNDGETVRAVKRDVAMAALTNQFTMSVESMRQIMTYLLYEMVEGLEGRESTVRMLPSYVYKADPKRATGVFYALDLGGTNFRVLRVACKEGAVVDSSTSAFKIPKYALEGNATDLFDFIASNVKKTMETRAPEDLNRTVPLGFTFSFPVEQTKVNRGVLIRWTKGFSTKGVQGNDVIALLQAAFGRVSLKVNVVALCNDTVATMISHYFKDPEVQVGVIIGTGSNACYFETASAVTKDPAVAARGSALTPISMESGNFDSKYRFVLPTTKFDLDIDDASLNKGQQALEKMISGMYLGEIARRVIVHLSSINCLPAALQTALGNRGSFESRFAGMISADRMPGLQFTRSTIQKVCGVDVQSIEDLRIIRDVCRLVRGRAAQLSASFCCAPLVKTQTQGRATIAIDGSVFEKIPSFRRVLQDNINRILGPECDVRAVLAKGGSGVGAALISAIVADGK
Nature of the test: Confirmation assay for inhibitors of Trypanosoma brucei hexokinase 1-Analogue-first series. [Related pubchem assays (depositor defined):AID1430, AID1632, AID2516, AID2560, AID2579, AID2600, AID449725, AID492951]. Type of test: functional.

A further test deals with Phosphomannomutase 2 (Homo sapiens, UniProt O15305). The test can be described thus: Counter screen SAR assay for PMM2 inhibitors via a fluorescence intensity assay. [Related pubchem assays (depositor defined):AID1545, AID1574].
For test [5], the target named is Phosphoethanolamine/phosphocholine phosphatase (Homo sapiens, UniProt Q8TCT1). Nature of the test: SAR assay for compounds that inhibit PHOSPHO1. [Related pubchem assays (depositor defined):AID1545, AID1565, AID1574].
Another test deals with T4, Aminopeptidase N (Plasmodium falciparum FcB1/Columbia, UniProt O96935).
T4 sequence (O96935 whole entry): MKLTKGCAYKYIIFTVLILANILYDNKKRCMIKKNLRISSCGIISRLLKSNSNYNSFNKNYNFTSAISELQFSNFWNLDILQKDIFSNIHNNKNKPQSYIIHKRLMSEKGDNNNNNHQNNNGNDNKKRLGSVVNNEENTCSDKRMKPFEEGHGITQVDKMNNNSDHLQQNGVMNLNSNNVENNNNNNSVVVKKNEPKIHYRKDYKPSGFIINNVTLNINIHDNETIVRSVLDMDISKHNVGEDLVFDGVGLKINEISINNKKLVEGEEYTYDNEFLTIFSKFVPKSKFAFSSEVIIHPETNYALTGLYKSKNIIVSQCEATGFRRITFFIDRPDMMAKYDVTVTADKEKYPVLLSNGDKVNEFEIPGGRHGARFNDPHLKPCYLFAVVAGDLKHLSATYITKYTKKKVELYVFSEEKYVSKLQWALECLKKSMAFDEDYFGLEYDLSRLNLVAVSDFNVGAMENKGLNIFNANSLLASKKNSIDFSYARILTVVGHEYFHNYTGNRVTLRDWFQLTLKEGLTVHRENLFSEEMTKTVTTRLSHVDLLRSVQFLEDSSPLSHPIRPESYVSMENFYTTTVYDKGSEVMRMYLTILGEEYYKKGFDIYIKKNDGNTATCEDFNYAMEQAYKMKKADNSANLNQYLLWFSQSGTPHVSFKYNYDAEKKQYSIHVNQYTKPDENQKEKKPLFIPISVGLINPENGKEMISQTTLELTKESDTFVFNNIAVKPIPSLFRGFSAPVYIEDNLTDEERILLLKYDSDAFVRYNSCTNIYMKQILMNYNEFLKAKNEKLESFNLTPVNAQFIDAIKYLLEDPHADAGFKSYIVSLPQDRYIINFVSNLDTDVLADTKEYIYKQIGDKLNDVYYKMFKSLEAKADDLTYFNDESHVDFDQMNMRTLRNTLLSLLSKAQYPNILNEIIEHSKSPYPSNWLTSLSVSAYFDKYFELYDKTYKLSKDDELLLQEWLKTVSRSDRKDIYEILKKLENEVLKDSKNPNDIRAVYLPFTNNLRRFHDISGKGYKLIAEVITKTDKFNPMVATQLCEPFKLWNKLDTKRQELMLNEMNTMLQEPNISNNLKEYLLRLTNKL
Nature of the test: malaria alanyl aminopeptidase activity blockers – biochemical, fluorogenic H-Leu-NHMec substrate, 1536-well (AID 1445). Further details: species or system Plasmodium falciparum 3D7, 3D7.

The target in test [6] is Guanyl-specific ribonuclease T1 (Aspergillus oryzae (strain ATCC 42149 / RIB 40), UniProt P00651). Nature of the test: inhibition of ribonuclease T1 activity – biochemical, fluorescence polarization, 1536-well, counter-screen for TPT1 inhibitor project, dose response (AID 2167). For orientation: In fluorescence polarisation assays a small probe gives low polarisation when free and higher when bound to something large.

The target in another test is Large T antigen (Simian virus 40, UniProt P03070). Type of test: functional, Betapolyomavirus macacae.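 Note: Confirmatory-stage PubChem screen for compounds that inhibit SV40 T antigen.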
Test [7] deals with Likely tRNA 2'-phosphotransferase (Candida albicans (strain SC5314 / ATCC MYA-2876) (Yeast), UniProt Q5A7N4). Nature of the test: inhibition of Candida TPT1 enzyme activity – biochemical, fluorescence polarization, dose response (AID 2160).
Test [8] addresses T5, Calpain-2 catalytic subunit (Sus scrofa, UniProt P43367).
T5 sequence (P43367 whole entry): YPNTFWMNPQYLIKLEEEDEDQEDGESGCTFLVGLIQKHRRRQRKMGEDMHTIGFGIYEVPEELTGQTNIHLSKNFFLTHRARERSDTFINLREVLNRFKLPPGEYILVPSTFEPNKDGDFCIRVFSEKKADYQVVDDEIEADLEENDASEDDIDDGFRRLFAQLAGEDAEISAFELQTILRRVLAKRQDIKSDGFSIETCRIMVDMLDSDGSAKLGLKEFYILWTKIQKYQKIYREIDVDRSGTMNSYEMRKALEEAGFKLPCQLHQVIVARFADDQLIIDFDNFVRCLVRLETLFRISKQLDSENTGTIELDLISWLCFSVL
The test can be described thus: m-calpain protease blockers, concentration series – biochemical, fluorogenic peptide substrate, dose response (AID 1420). The test is classed as functional.

For test [9], the target named is Bifunctional protein GlmU (Mycobacterium tuberculosis, UniProt P9WMN3). Nature of the test: Inhibitors of Mycobacterial Glucosamine-1-phosphate acetyl transferase (GlmU). Secondary screen. Further details: species or system Mycobacterium tuberculosis H37Rv.
For test [10], the target named is Induced myeloid leukemia cell differentiation protein Mcl-1 (Homo sapiens, UniProt Q07820). Type of test: functional.
Another test concerns HeLa. The test can be described thus: viability loss in HeLa cells – cell-based, 24 h, cherry-picked samples, cytotoxicity control, dose response (AID 504726).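 Note: potency for cytotoxicity as loss of luminescence signal.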 Type of test: functional. The note with it: Homo sapiens.
Another test addresses ORF 73 (Human herpesvirus 8, UniProt O40947). The test can be described thus: KSHV LANA DNA-binding disruption – biochemical, fluorescence polarization, cherry-picked samples, dose response (AID 504725).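 Note: fluorescence polarization of a labeled DNA duplex reporting LANA DNA binding; potency is for inhibitors that block LANA binding to the DNA.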 Further details: species or system Human gammaherpesvirus 8.
For test [11], the target named is Intestinal-type alkaline phosphatase (Homo sapiens, UniProt P09923). The test can be described thus: activation of human intestinal alkaline phosphatase – biochemical, dose response (AID 488873). The test is classed as functional.
The target of test [12] is Intestinal-type alkaline phosphatase (Mus musculus, UniProt P24822). Nature of the test: mouse intestinal alkaline phosphatase activators, dose response, biochemical, luminescence, uHTS hits (AID 488783). The test is classed as functional.
For test [13], the target named is T6, Alkaline phosphatase, tissue-nonspecific isozyme (Homo sapiens, UniProt P05186).
T6 sequence (P05186 whole entry): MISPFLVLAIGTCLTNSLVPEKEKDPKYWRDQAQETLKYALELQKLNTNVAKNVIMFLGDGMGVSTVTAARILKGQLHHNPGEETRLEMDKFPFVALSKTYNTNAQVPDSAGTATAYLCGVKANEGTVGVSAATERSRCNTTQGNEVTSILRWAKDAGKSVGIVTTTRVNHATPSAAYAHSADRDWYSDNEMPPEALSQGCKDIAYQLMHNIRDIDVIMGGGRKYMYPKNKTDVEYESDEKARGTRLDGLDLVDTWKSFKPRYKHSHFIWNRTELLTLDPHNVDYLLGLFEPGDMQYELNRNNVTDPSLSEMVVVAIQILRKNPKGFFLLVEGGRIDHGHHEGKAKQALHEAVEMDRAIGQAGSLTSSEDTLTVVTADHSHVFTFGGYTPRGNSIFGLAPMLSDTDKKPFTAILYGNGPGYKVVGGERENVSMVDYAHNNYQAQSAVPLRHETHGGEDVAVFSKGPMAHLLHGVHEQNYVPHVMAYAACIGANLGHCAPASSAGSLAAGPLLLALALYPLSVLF
Nature of the test: activation of tissue-nonspecific alkaline phosphatase – biochemical, TNAP isozyme, mouse IAP uHTS hits, selectivity assay for mouse IAP activator project, dose response (AID 488880). Type of test: functional.

Another test concerns the target T7, Cysteine protease ATG4B (Homo sapiens, UniProt Q9Y4P1).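 Note: Fluorescence-based dose-response confirmation assay measuring inhibition of ATG4B activity.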
T7 sequence (Q9Y4P1 whole entry): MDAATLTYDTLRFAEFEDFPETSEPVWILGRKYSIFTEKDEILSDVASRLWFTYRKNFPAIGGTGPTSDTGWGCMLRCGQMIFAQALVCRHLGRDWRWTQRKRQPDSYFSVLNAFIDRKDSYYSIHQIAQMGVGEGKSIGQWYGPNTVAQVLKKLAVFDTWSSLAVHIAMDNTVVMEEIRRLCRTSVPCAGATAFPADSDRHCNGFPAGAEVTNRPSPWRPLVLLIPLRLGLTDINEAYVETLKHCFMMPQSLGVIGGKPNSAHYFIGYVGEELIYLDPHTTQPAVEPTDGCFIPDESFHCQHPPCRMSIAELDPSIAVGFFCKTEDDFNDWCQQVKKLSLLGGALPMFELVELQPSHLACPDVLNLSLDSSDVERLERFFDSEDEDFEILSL
Type of test: functional.

The next test addresses Phospholipase A2 (Homo sapiens, UniProt P04054). Type of test: functional.

T1 sequence (P41145 whole entry): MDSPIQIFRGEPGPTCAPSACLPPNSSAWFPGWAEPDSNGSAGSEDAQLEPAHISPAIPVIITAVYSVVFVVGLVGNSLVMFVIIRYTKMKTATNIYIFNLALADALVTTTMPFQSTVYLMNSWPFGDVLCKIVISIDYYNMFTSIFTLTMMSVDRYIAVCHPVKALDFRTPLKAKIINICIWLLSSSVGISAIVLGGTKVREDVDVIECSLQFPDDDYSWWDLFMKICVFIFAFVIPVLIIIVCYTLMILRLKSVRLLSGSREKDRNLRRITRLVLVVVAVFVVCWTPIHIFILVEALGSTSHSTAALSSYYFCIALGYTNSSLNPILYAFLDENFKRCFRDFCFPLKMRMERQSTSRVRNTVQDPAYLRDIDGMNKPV
Sequence of ORF 73 (O40947 whole entry): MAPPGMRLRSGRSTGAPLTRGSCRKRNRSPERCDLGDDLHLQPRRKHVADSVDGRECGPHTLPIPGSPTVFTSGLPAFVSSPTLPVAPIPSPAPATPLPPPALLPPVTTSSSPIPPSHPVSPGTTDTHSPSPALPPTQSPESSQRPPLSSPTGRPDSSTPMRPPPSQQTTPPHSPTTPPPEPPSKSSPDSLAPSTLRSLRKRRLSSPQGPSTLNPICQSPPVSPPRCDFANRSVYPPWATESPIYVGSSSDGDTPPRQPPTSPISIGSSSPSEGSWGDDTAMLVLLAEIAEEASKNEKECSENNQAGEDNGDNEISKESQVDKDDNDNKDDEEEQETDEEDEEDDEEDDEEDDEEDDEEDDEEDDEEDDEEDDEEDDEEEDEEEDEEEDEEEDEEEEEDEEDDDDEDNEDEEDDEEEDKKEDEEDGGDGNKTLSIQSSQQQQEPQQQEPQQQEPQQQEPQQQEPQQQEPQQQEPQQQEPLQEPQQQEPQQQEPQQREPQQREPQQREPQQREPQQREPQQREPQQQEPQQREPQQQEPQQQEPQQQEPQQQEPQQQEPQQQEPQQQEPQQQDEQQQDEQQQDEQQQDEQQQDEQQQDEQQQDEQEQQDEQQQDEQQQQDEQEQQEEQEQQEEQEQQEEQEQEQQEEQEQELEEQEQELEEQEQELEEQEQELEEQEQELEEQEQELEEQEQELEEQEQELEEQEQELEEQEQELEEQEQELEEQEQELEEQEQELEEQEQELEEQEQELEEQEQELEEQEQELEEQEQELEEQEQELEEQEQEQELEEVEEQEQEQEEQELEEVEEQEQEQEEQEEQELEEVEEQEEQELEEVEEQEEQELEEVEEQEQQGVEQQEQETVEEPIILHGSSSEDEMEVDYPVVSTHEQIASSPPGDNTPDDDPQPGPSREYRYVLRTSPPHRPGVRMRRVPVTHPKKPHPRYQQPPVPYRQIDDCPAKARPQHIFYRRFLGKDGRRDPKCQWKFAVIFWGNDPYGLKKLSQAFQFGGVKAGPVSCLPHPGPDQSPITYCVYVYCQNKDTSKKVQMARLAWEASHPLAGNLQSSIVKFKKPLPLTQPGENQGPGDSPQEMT
Sequence of Likely tRNA 2'-phosphotransferase (Q5A7N4 whole entry): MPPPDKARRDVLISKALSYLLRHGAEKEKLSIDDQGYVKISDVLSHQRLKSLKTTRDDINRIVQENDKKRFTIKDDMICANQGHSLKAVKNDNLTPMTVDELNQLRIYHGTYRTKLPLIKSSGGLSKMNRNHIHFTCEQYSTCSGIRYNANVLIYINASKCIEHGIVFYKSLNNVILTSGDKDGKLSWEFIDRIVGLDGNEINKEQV
Sequence of Intestinal-type alkaline phosphatase (Homo sapiens, UniProt P09923) (P09923 whole entry): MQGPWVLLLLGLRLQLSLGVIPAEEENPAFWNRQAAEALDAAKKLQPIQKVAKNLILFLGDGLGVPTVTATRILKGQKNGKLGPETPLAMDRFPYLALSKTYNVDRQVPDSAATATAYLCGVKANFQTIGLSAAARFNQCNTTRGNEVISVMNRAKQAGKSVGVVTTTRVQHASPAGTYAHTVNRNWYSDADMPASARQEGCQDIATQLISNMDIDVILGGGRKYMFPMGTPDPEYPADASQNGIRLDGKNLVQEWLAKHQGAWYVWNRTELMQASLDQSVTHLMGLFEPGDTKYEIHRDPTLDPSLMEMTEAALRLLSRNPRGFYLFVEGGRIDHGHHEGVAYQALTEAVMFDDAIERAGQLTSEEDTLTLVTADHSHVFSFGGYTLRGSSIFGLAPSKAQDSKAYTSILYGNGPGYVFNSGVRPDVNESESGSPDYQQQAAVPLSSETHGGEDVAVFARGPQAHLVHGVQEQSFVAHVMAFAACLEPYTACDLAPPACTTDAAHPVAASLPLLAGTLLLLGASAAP
Sequence of Delta-type opioid receptor (P41143 whole entry): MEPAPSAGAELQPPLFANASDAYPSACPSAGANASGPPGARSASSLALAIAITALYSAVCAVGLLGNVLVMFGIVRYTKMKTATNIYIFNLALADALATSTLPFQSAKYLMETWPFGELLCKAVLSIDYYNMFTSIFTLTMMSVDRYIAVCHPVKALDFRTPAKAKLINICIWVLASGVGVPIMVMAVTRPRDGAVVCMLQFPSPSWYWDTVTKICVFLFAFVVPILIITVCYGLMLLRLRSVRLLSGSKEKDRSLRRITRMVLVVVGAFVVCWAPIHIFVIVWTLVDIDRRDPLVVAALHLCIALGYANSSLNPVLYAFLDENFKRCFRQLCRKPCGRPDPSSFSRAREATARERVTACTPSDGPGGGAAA
Sequence of Phospholipase A2 (P04054 whole entry): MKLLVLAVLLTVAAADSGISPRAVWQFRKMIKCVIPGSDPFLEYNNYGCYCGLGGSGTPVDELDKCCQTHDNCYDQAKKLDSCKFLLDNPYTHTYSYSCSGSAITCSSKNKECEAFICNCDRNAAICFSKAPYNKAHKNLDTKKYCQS
Sequence of Phosphoethanolamine/phosphocholine phosphatase (Q8TCT1 whole entry): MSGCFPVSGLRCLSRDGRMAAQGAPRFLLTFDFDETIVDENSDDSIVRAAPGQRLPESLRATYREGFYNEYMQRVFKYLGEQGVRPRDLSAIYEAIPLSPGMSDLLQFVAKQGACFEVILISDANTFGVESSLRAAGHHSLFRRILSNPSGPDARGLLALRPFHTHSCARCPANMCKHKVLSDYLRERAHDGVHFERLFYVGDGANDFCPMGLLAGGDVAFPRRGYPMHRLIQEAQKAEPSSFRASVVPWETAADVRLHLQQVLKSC
Sequence of Mu-type opioid receptor (P35372 whole entry): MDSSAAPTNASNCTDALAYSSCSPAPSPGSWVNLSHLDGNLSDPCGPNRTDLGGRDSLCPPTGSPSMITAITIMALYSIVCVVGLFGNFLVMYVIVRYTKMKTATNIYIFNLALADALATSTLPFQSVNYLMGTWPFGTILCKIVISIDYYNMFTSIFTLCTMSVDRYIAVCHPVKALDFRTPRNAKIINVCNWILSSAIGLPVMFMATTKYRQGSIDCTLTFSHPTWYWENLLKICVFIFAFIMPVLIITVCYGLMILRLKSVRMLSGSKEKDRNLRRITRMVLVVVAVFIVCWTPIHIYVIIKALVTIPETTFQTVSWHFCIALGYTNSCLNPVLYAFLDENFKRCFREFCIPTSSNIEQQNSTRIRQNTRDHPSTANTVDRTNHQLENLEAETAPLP
Sequence of Guanyl-specific ribonuclease T1 (P00651 whole entry): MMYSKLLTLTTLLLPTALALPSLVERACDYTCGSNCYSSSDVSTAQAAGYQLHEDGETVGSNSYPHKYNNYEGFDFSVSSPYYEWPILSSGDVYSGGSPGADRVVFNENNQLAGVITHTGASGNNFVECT
Sequence of Large T antigen (P03070 whole entry): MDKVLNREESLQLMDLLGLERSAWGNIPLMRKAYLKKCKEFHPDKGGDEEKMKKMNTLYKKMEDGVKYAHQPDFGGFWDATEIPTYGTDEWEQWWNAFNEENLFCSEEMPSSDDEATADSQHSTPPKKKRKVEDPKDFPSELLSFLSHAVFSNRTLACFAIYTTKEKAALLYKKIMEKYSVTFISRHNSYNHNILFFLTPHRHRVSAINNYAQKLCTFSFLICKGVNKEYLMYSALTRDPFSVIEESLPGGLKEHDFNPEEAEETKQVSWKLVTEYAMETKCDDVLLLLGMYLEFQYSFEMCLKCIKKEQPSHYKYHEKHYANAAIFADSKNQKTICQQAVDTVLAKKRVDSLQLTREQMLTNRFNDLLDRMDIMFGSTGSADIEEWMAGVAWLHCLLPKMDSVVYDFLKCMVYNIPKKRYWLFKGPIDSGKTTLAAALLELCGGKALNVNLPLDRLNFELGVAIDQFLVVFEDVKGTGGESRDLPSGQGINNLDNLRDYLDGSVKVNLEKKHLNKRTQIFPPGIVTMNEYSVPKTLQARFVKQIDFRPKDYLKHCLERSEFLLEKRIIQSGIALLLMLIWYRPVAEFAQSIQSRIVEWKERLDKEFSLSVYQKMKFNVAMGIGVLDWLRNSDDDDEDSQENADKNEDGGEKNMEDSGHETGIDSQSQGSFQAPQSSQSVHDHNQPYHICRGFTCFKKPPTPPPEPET
Sequence of Induced myeloid leukemia cell differentiation protein Mcl-1 (Q07820 whole entry): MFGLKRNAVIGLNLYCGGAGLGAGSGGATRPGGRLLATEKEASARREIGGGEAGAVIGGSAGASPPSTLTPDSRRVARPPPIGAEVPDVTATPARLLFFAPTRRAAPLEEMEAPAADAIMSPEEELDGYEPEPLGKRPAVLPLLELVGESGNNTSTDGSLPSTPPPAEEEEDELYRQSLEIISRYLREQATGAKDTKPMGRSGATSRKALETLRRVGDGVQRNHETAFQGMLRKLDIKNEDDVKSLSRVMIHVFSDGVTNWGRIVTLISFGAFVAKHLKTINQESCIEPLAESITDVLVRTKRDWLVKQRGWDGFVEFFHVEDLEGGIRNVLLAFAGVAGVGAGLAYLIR
Sequence of Phosphomannomutase 2 (O15305 whole entry): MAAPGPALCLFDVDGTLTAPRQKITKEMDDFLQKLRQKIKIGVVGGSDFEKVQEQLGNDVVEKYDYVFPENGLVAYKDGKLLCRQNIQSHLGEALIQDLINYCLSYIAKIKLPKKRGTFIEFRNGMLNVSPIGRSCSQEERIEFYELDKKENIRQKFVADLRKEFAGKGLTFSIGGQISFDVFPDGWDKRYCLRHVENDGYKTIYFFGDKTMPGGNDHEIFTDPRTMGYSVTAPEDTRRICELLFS

Usually IC50 stands for the concentration at which inhibition is half-maximal. Take `Cc1ccc(S(=O)(=O)N2CCc3ccc(C(=O)NCCN(Cc4ccccc4)C(C)C)cc3C2)cc1`: the concentration for half-maximal inhibition (IC50) at Mu-type opioid receptor is 2.89 µM (active); in test [1] it was 10.2 µM (inactive); in test [2] it was > 32 µM (inactive); in test [3], > 32 µM (inactive).
On to `O=c1c2ccc([N+](=O)[O-])cc2sn1-c1ccccc1`, for which the IC50 was > 50 µM (inactive) in test [4], 11.6 µM (active) at Hexokinase, > 100 µM (inactive) on Phosphomannomutase 2 and 4.23 µM (inactive) in [5].
As a reminder, the AC50 is the midpoint of the concentration-response curve, whichever way the signal moves. The term EC50 denotes the midpoint of the concentration-response curve. On to `O=C1/C(=C/C=C/c2ccco2)SC(=S)N1NS(=O)(=O)c1ccccc1`, for which the IC50 at Aminopeptidase N is 22.6 µM (active); in [6], 18.5 µM (not active); on Large T antigen, 25.4 µM (active); in [7], 20.8 µM (not active); in [8], 8.28 µM (not active); in test [9], 49.6 µM (active). Also, the IC50 in [10] is 3.1 µM (active); on Cysteine protease ATG4B, 7.13 µM (active); at Phospholipase A2, 13 µM (active). Moreover, the AC50 is > 350 µM (inactive) in the test with HeLa and 177 µM (active) on ORF 73. Besides, the EC50 was > 100 µM (inactive) in test [11], 3.13 µM (active) in test [12] and > 100 µM (inactive) in test [13].
